Measured values taken from patent publication US20260226065A1, “SUBSTITUTED BENZENE COMPOUND” (DAIICHI SANKYO COMPANY, LIMITED, priority 2023, published 2026).

What was measured:
[1] = Pharmacokinetics test in mice (plasma and brain concentration, LC/MS/MS); format: in vivo; conditions: mouse; male BALB/c mice; oral 10 mg/kg; two hours after administration; concentration in brain homogenate standardized with concentration in plasma
Procedure: Two hours after oral administration of the test compound (10 mg/kg) to male BALB/c mice, blood was collected from the posterior vena cava under isoflurane anesthesia, and plasma was obtained by centrifugation. In addition, the brain was collected after euthanasia by exsanguination, and distilled water was added to the obtained brain sample in an amount four times the wet weight of the brain to prepare a 20% homogenate. The compound concentrations in the obtained plasma and brain homogenate were measured by LC/MS/MS. The central transfer parameter Kp, brain was calculated by standardizing the concentration in the brain homogenate with the concentration in plasma. In the table, Ex indicates the example number. […].

NLRP3 inflammasome = target: T1, NLRP3 inflammasome (Homo sapiens, UniProt Q96P20); test: In vitro IL-1β production test (PMA-differentiated THP-1 cells, Nigericin stimulation, AlphaLISA); format: cell-based; conditions: inhibition of IL-1β production; THP-1 cells differentiated with 200 nM PMA; 0.015 mM Nigericin; 2 hours
T1 construct: endogenous in cells; host or cells: THP-1 (human monocyte-derived), PMA-differentiated, Nigericin-stimulated
In short: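 THP-1 cells were differentiated one day with 200 nM PMA, then given serum-free medium with 0.015 mM nigericin plus compound for 2 h. Supernatant IL-1β was measured by AlphaLISA, with nigericin alone as 0% and unstimulated as 100% inhibition. IC50 came from logistic sigmoid fitting.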

T1 sequence (Q96P20 whole entry): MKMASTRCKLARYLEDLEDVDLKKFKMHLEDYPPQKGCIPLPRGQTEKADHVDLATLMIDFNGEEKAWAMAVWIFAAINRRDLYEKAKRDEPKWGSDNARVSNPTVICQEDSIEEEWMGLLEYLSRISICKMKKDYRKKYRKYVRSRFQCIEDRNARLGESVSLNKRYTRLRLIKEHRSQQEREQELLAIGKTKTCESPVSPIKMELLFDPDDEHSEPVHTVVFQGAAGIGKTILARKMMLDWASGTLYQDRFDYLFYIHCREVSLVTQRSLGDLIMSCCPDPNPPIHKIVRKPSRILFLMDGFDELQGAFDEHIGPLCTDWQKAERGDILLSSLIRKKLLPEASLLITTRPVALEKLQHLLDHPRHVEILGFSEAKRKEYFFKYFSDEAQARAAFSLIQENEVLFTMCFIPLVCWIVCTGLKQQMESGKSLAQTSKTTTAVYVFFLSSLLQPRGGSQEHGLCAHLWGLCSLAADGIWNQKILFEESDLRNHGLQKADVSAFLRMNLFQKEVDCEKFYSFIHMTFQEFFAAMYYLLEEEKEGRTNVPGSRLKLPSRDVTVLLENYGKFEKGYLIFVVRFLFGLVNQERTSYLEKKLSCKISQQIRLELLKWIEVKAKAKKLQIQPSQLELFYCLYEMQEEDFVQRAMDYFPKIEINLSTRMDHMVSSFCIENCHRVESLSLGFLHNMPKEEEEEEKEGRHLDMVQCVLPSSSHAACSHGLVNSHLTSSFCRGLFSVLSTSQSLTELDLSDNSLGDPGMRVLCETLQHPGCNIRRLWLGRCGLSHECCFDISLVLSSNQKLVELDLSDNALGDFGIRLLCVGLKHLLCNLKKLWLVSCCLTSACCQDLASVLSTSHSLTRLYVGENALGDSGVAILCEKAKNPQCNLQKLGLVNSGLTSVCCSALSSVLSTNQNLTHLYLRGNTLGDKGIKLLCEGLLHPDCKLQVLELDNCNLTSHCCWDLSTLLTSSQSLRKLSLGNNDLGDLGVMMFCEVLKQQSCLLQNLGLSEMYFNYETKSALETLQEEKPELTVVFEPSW

Kp at 2 h [1] | IC50 (NLRP3 inflammasome) | Compound
1.68 | 31.3 nM | Cc1cc(C(F)(F)F)cc(O)c1-c1cc2c(F)cn([C@H]3C[C@@](C)(O)C3)c2nn1 [Example 5, 2-{5-fluoro-7-[(1s,3s)-3-hydroxy-3-methylcyclobutyl]-7H-pyrrolo[2,3-c]pyridazin-3-yl}-3-methyl-5-(trifluoromethyl)phenol]
0.83 | 19.8 nM | Cc1cc(C(F)(F)F)cc(O)c1-c1cc2c(OC(F)F)cn([C@H]3C[C@@](C)(O)C3)c2nn1 [Example 21, 2-{5-(difluoromethoxy)-7-[(1s,3s)-3-hydroxy-3-methylcyclobutyl]-7H-pyrrolo[2,3-c]pyridazin-3-yl}-3-methyl-5-(trifluoromethyl)phenol]
